Laboratory results: US20110105496A1, “Methods For The Treatment Of Myosin Heavy Chain-Mediated Conditions Using 4,7-Dihydrothieno[2,3-B]Pyridine Compounds” (priority 2005, published 2011)

Test system: alpha-MyHC
Assay: alpha-MyHC cytoblot process in neonatal rat ventricular myocytes (NRVM)
Assay type: cell-based
Settings: Table 2 (esters), NRVM, 72 hours; for EC50: alpha-MyHC cytoblot; for Max Plateau: maximum of dose response fit

COCC1=C(C(=O)OC)C(c2ccccc2)c2c(sc(C(=O)c3ccc(Cl)c(Cl)c3)c2N)N1 (stereo not drawn) [Compound 120]
EC50: 0.157 µM | Max Plateau: 140.79 per cent fraction of low control

CC1=C(C(=O)OCCN2CCOCC2)C(c2ccccc2)c2c(sc(C(=O)c3ccc(Cl)c(Cl)c3)c2N)N1 (stereo not drawn) [Compound 126]
EC50: 0.21 µM | Max Plateau: 193.06 ± 11.02 per cent fraction of low control

C=CCOC(=O)C1=C(C)Nc2sc(C(=O)c3ccc(Cl)c(Cl)c3)c(N)c2C1c1ccccc1 (stereo not drawn) [Compound 127]
EC50: 0.054 µM | Max Plateau: 195.71 ± 29.42 per cent fraction of low control

CC1=C(C(=O)OCC2CCCN2C)C(c2ccccc2)c2c(sc(C(=O)c3ccc(Cl)c(Cl)c3)c2N)N1 (stereo not drawn) [Compound 129]
EC50: 4.58 µM | Max Plateau: 150.08 ± 9.89 per cent fraction of low control

COC(=O)C1=C(C(C)(C)C)Nc2sc(C(=O)c3ccc(Cl)c(Cl)c3)c(N)c2C1c1ccccc1 (stereo not drawn) [Compound 131]
EC50: 2.9 µM | Max Plateau: 158.97 per cent fraction of low control

COC(=O)C1=C(C2CC2)Nc2sc(C(=O)c3ccc(Cl)c(Cl)c3)c(N)c2C1c1ccccc1 (stereo not drawn) [Compound 133]
EC50: 0.0715 µM | Max Plateau: 180.24 per cent fraction of low control

COC(=O)C1=C(C(C)C)Nc2sc(C(=O)c3ccc(Cl)c(Cl)c3)c(N)c2C1c1cccc([N+](=O)[O-])c1 (stereo not drawn) [Compound 134]
Max Plateau: 98.33 per cent fraction of low control

CC1=C(C(=O)OC(C)C)C(c2ccccc2)c2c(sc(C(=O)c3ccc(Cl)c(Cl)c3)c2N)N1 (stereo not drawn) [Compound 135]
EC50: 0.118 µM | Max Plateau: 186.32 per cent fraction of low control

CCC1=C(C(=O)OC)C(c2c(F)cccc2F)c2c(sc(C(=O)c3ccc(Cl)c(Cl)c3)c2N)N1 (stereo not drawn) [Compound 137]
EC50: 0.0156 µM | Max Plateau: 213.90 per cent fraction of low control

CCC1=C(C(=O)OC)C(c2ccccc2)c2c(sc(C(=O)c3cccc([N+](=O)[O-])c3)c2N)N1 (stereo not drawn) [Compound 139]
EC50: 0.00691 µM | Max Plateau: 281.08 per cent fraction of low control

CCC1=C(C(=O)OC)C(c2ccccc2F)c2c(sc(C(=O)c3cccc([N+](=O)[O-])c3)c2N)N1 (stereo not drawn) [Compound 140]
EC50: 0.00242 µM | Max Plateau: 266.63 per cent fraction of low control

CCC1=C(C(=O)OC)C(c2c(F)cccc2F)c2c(sc(C(=O)c3cccc([N+](=O)[O-])c3)c2N)N1 (stereo not drawn) [Compound 141]
EC50: 0.0143 µM | Max Plateau: 261.69 per cent fraction of low control

CCOC(=O)C1=C(CC)Nc2sc(C(=O)c3ccc(Cl)c(Cl)c3)c(N)c2C1c1ccccc1F (stereo not drawn) [Compound 142]
EC50: 0.00678 µM | Max Plateau: 194.32 per cent fraction of low control

CCC1=C(C(=O)OC)C(c2ccccc2)c2c(sc(C(=O)c3cccc(C#N)c3)c2N)N1 (stereo not drawn) [Compound 143]
EC50: 0.00524 µM | Max Plateau: 290.53 per cent fraction of low control

COC(=O)C1=C(C2CC2)Nc2sc(C(=O)c3ccc(Cl)c(Cl)c3)c(N)c2C1c1ccccc1F (stereo not drawn) [Compound 144]
EC50: 0.0633 µM | Max Plateau: 187.17 per cent fraction of low control

CCOC(=O)C1=C(CC)Nc2sc(C(=O)c3ccc(Cl)cc3Cl)c(N)c2C1c1ccccc1 (stereo not drawn) [Compound 145]
EC50: 0.123 µM | Max Plateau: 224.48 per cent fraction of low control

CCOC(=O)C1=C(CC)Nc2sc(C(=O)c3cc(Cl)ccc3Cl)c(N)c2C1c1ccccc1 (stereo not drawn) [Compound 146]
EC50: 0.00403 µM | Max Plateau: 213.49 per cent fraction of low control

CCOC(=O)C1=C(CC)Nc2sc(C(=O)c3cc(C(F)(F)F)cc(C(F)(F)F)c3)c(N)c2C1c1ccccc1 (stereo not drawn) [Compound 149]
EC50: 0.0111 µM | Max Plateau: 207.18 per cent fraction of low control

CCC1=C(C(=O)OC)C(c2ccccc2F)c2c(sc(C(=O)c3ccc(Cl)c(C)c3)c2N)N1 (stereo not drawn) [Compound 150]
EC50: 0.0214 µM | Max Plateau: 228.28 per cent fraction of low control

CCOC(=O)C1=C(CC)Nc2sc(C(=O)c3cc(F)cc(F)c3)c(N)c2C1c1ccccc1 (stereo not drawn) [Compound 151]
EC50: 0.0101 µM | Max Plateau: 273.61 per cent fraction of low control

CCOC(=O)C1=C(CC)Nc2sc(C(=O)c3cccc(C(=O)O)c3)c(N)c2C1c1ccccc1 (stereo not drawn) [Compound 152]
EC50: 2.91 µM | Max Plateau: 238.69 per cent fraction of low control

CCC1=C(C(=O)OC)C(c2ccc(F)cc2F)c2c(sc(C(=O)c3ccc(Cl)c(Cl)c3)c2N)N1 (stereo not drawn) [Compound 153]
EC50: 0.0153 µM | Max Plateau: 234.66 per cent fraction of low control

COC(=O)C1=C(CCc2ccccc2)Nc2sc(C(=O)c3ccc(Cl)c(Cl)c3)c(N)c2C1c1ccccc1F (stereo not drawn) [Compound 154]
EC50: 0.303 µM | Max Plateau: 125.87 per cent fraction of low control
